Test results published in patent US8481540B2, “Inhibitors of bruton's tyrosine kinase” (Hoffmann-La Roche Inc., priority 2010, dated 2013).
Like-named read-outs stand apart in the source and are kept apart here.

System: B cells in human blood
Experiment: Inhibition of B cell activation in whole blood measured by CD69 expression
Type: cell-based
Conditions: read-out: Human Whole Blood
Description: Inhibition of B Cell Activation in Whole Blood Measured by CD69 Expression
A procedure to test the ability of Btk inhibitors to suppress B cell receptor-mediated activation of B cells in human blood is as follows:
Human whole blood (HWB) is obtained from healthy volunteers, with the following restrictions: 24 hr drug-free, non-smokers. Blood is collected by venipuncture into Vacutainer tubes anticoagulated with sodium heparin. Test compounds are diluted to […] the desired starting drug concentration in PBS (20×), followed by three-fold serial dilutions in 10% DMSO in PBS to produce a nine point dose-response curve. 5.5 μl of each compound dilution is added in duplicate to a 2 ml96-well V bottom plate (Analytical Sales and Services, #59623-23); 5.5 μl of 10% DMSO in PBS is added to control and no-stimulus wells. HWB (100 μl) is added to each well, and after mixing the plates are incubated at 37 C, 5% CO2, 100% humidity for 30 minutes. Goat F(ab′)2 anti-human IgM (Southern Biotech, #2022-14) (10 μl of a […] solution, 50 μg/ml final concentration) is added to each well (except the no-stimulus wells) with mixing and the plates are incubated for an additional 20 hours.
At the end of the 20 hour incubation, samples are incubated with florescent-probe-labeled anti-bodies (15 μl PE Mouse anti-Human CD20, BD Pharmingen, #555623, and/or 20 ul APC Mouse anti-Human CD69, BD Pharmingen #555533) for 30 minutes, at 37 C, 5% CO2, 100% humidity. Included are induced control, unstained and single stains for compensation adjustments and initial voltage settings. Samples are then lysed with 1 ml of 1× Pharmingen Lyse Buffer (BD Pharmingen #555899), and plates are centrifuged at 1800 rpm for 5 minutes. Supernatants are removed via suction and the remaining pellets are lysed again with another 1 ml of 1× Pharmingen Lyse Buffer, and plates are spun down as before. Supernatants are aspirated and remaining pellets are washed in FACs buffer (PBS+1% FBS). After a final spin, the supernantants are removed and pellets are resuspended in 180 μl of FACs buffer. Samples are transferred to a 96 well plate suitable to be run on the HTS 96 well system on the BD LSR II flow cytometer.
Using appropriate excitation and emission wavelengths for the fluorophores used, data are acquired and percent positive cell values are obtained using Cell Quest Software. Results are initially analyzed by FACS analysis software (Flow Jo). […] The IC50 values are calculated using XLfit software version 3, equation 201.
Representative compound data for this assay are listed below in Table II.

[1] = CD69-positive, CD20-positive cells after anti-IgM stimulation, human whole blood, 20 hours

Row | IC50 [1] [nM] | Compound | IC50 (Homo sapiens, 20 h) [nM]
1 | 180 | CN(C)C(=O)c1ccc(Nc2cc(-c3cccc(-n4ccc5cc(C(C)(C)C#N)cc(F)c5c4=O)c3CO)nn(C)c2=O)nc1 [I-75, 6-(6-{3-[6-(Cyano-dimethyl-methyl)-8-fluoro-1-oxo-1H-isoquinolin-2-yl]-2-hydroxymethyl-phenyl}-2-methyl-3-oxo-2,3-dihydro-pyridazin-4-ylamino)-N,N-dimethyl-nicotinamide] | 
2 | 41 | Cn1nc(-c2cccc(-n3ncc4cc(C(C)(C)C)cc(F)c4c3=O)c2CO)cc(Nc2ccc(C3CCN(C4COC4)CC3)cn2)c1=O [I-80, 6-tert-Butyl-8-fluoro-2-{2-hydroxymethyl-3-[1-methyl-5-(1′-oxetan-3-yl-1′,2′,3′,4′,5′,6′-hexahydro-[3,4]bipyridinyl-6-ylamino)-6-oxo-1,6-dihydro-pyridazin-3-yl]-phenyl}-2H-phthalazin-1-one] | 
3 | 70 | CCN1CCn2nc(Nc3cc(-c4cccc(-n5ccc6cc(C(C)(C)C#N)cc(F)c6c5=O)c4CO)nn(C)c3=O)cc2C1 [I-83, 2-(2-{3-[5-(5-Ethyl-4,5,6,7-tetrahydro-pyrazolo[1,5-a]pyrazin-2-ylamino)-1-methyl-6-oxo-1,6-dihydro-pyridazin-3-yl]-2-hydroxymethyl-phenyl}-8-fluoro-1-oxo-1,2-dihydro-isoquinolin-6-yl)-2-methyl-propionitrile] | 
4 | 19 | CN(C)CCNC(=O)c1ccc(Nc2cc(-c3cccc(-n4ncc5cc(C(C)(C)C)cc(F)c5c4=O)c3CO)nn(C)c2=O)nc1 [I-51, 6-(6-(3-(6-tert-butyl-8-fluoro-1-oxophthalazin-2(1H)-yl)-2-(hydroxymethyl)phenyl)-2-methyl-3-oxo-2,3-dihydropyridazin-4-ylamino)-N-(2-(dimethylamino)ethyl)nicotinamide] | 
5 | 123 | CN1CC[C@@H](c2ccc(Nc3cc(-c4cccc(-n5ccc6cc(C(C)(C)C#N)cc(F)c6c5=O)c4CO)nn(C)c3=O)nc2)C1 [I-77, 2-[8-Fluoro-2-(2-hydroxymethyl-3-{1-methyl-5-[5-((S)-1-methyl-pyrrolidin-3-yl)-pyridin-2-ylamino]-6-oxo-1,6-dihydro-pyridazin-3-yl}-phenyl)-1-oxo-1,2-dihydro-isoquinolin-6-yl]-2-methyl-propionitrile] | 
6 | 76 | Cn1nc(-c2cccc(-n3ncc4cc(C(C)(C)C)cc(F)c4c3=O)c2CO)cc(Nc2ccc(C(=O)N3CCC3)cn2)c1=O [I-47, 2-(3-{5-[5-(Azetidine-1-carbonyl)-pyridin-2-ylamino]-1-methyl-6-oxo-1,6-dihydro-pyridazin-3-yl}-2-hydroxymethyl-phenyl)-6-tert-butyl-8-fluoro-2H-phthalazin-1-one] | 
7 | 51 | CN1CCC[C@H]1c1ccc(Nc2cc(-c3cccc(-n4ccc5cc(C(C)(C)C#N)cc(F)c5c4=O)c3CO)nn(C)c2=O)nc1 [I-76, 2-[8-Fluoro-2-(2-hydroxymethyl-3-{1-methyl-5-[5-((S)-1-methyl-pyrrolidin-2-yl)-pyridin-2-ylamino]-6-oxo-1,6-dihydro-pyridazin-3-yl}-phenyl)-1-oxo-1,2-dihydro-isoquinolin-6-yl]-2-methyl-propionitrile] | 
8 | 39 | Cn1nc(-c2cccc(-n3ncc4cc(C(C)(C)C)cc(F)c4c3=O)c2CO)cc(Nc2ccc(C(=O)N3CC(C#N)C3)cn2)c1=O [I-53, 1-(6-(6-(3-(6-tert-butyl-8-fluoro-1-oxophthalazin-2(1H)-yl)-2-(hydroxymethyl)phenyl)-2-methyl-3-oxo-2,3-dihydropyridazin-4-ylamino)nicotinoyl)azetidine-3-carbonitrile] | 
9 | 85 | Cn1nc(-c2cccc(-n3ncc4cc(C(C)(C)C)cc(F)c4c3=O)c2CO)cc(Nc2ccc(C(=O)N3CC4(COC4)C3)cn2)c1=O [I-49, 2-(3-(5-(5-(2-oxa-6-azaspiro[3.3]heptane-6-carbonyl)pyridin-2-ylamino)-1-methyl-6-oxo-1,6-dihydropyridazin-3-yl)-2-(hydroxymethyl)phenyl)-6-tert-butyl-8-fluorophthalazin-1(2H)-one] | 
10 | 86 | CN1CC2(C1)CN(C(=O)c1ccc(Nc3cc(-c4cccc(-n5ncc6cc(C(C)(C)C)cc(F)c6c5=O)c4CO)nn(C)c3=O)nc1)C2 [I-50, 6-tert-butyl-8-fluoro-2-(2-(hydroxymethyl)-3-(1-methyl-5-(5-(6-methyl-2,6-diazaspiro[3.3]heptane-2-carbonyl)pyridin-2-ylamino)-6-oxo-1,6-dihydropyridazin-3-yl)phenyl)phthalazin-1(2H)-one] | 
11 | 74 | Cn1nc(-c2cccc(-n3ncc4cc(C(C)(C)C)cc(F)c4c3=O)c2CO)cc(Nc2ccc(C3CCNCC3)cn2)c1=O [I-61, 6-tert-butyl-8-fluoro-2-(2-(hydroxymethyl)-3-(1-methyl-6-oxo-5-(5-(piperidin-4-yl)pyridin-2-ylamino)-1,6-dihydropyridazin-3-yl)phenyl)phthalazin-1(2H)-one] | 
12 | 30 | Cn1nc(-c2cccc(-n3ccc4cc(C(C)(C)C#N)cc(F)c4c3=O)c2CO)cc(Nc2ccc(OC(C)(C)CN3CCC3)cn2)c1=O [I-73, 2-[2-(3-{5-[5-(2-Azetidin-1-yl-1,1-dimethyl-ethoxy)-pyridin-2-ylamino]-1-methyl-6-oxo-1,6-dihydro-pyridazin-3-yl}-2-hydroxymethyl-phenyl)-8-fluoro-1-oxo-1,2-dihydro-isoquinolin-6-yl]-2-methyl-propionitrile] | 

The remaining lines, values behind:

Row | Compound | IC50 [1] [nM] | IC50 (Homo sapiens, 20 h) [nM]
13 | CN(C)C(=O)c1ccc(Nc2cc(-c3cccc(-n4ncc5cc(C(C)(C)C)cc(F)c5c4=O)c3CO)nn(C)c2=O)nc1 [I-20] | 15 | 
14 | Cn1nc(-c2cccc(-n3ncc4cc(C(C)(C)C)cc(F)c4c3=O)c2CO)cc(Nc2ccc(OC(C)(C)CO)cn2)c1=O [I-12, 6-tert-butyl-8-fluoro-2-(3-{5-[5-(2-hydroxy-1,1-dimethyl-ethoxy)-pyridin-2-ylamino]-1-methyl-6-oxo-1,6-dihydro-pyridazin-3-yl}-2-hydroxymethyl-phenyl)-2H-phthalazin-1-one] | 52 | 
15 | CC(C)N1CCC(c2ccc(Nc3cc(-c4cccc(-n5ncc6cc(C(C)(C)C)cc(F)c6c5=O)c4CO)nn(C)c3=O)nc2)CC1 [I-29, 6-tert-Butyl-8-fluoro-2-{2-hydroxymethyl-3-[5-(1′-isopropyl-1′,2′,3′,4′,5′,6′-hexahydro-[3,4′]bipyridinyl-6-ylamino)-1-methyl-6-oxo-1,6-dihydro-pyridazin-3-yl]-phenyl}-2H-phthalazin-1-one] | 15 | 
16 | CN1CCC[C@@H]1c1ccc(Nc2cc(-c3cccc(-n4ncc5cc(C(C)(C)C)cc(F)c5c4=O)c3CO)nn(C)c2=O)nc1 [I-19, 6-tert-Butyl-8-fluoro-2-(2-hydroxymethyl-3-{1-methyl-5-[5-((R)-1-methyl-pyrrolidin-2-yl)-pyridin-2-ylamino]-6-oxo-1,6-dihydro-pyridazin-3-yl}-phenyl)-2H-phthalazin-1-one] | 7 | 
17 | CN1C[C@@H]2C[C@H]1CN2c1ccc(Nc2cc(-c3cccc(-n4ncc5cc(C(C)(C)C)cc(F)c5c4=O)c3CO)nn(C)c2=O)nn1 [I-46, 6-tert-Butyl-8-fluoro-2-(2-hydroxymethyl-3-{1-methyl-5-[6-((1S,4S)-5-methyl-2,5-diaza-bicyclo[2.2.1]hept-2-yl)-pyridazin-3-ylamino]-6-oxo-1,6-dihydro-pyridazin-3-yl}-phenyl)-2H-phthalazin-1-one] | 293 | 
18 | COC[C@H](O)COc1ccc(Nc2cc(-c3cccc(-n4ncc5cc(C(C)(C)C)cc(F)c5c4=O)c3CO)nn(C)c2=O)nc1 [I-16, 6-tert-Butyl-8-fluoro-2-(3-{5-[5-((S)-2-hydroxy-3-methoxy-propoxy)-pyridin-2-ylamino]-1-methyl-6-oxo-1,6-dihydro-pyridazin-3-yl}-2-hydroxymethyl-phenyl)-2H-phthalazin-1-one] | 26 | 
19 | CN1CCN(Cc2ccc(Nc3cc(-c4cccc(-n5ncc6cc(C(C)(C)C)cc(F)c6c5=O)c4CO)nn(C)c3=O)nc2)CC1 [I-41, 6-tert-Butyl-8-fluoro-2-(2-hydroxymethyl-3-{1-methyl-5-[5-(4-methyl-piperazin-1-ylmethyl)-pyridin-2-ylamino]-6-oxo-1,6-dihydro-pyridazin-3-yl}-phenyl)-2H-phthalazin-1-one] | 15 | 
20 | Cn1nc(-c2cccc(-n3ncc4cc(C(C)(C)C)cc(F)c4c3=O)c2CO)cc(Nc2ccc(C(=O)N3CCOCC3)cn2)c1=O [I-2, 6-tert-Butyl-8-fluoro-2-(2-hydroxymethyl-3-{1-methyl-5-[5-(morpholine-4-carbonyl)-pyridin-2-ylamino]-6-oxo-1,6-dihydro-pyridazin-3-yl}-phenyl)-2H-phthalazin-1-one] |  | 14
